Measurements taken from the NIST ThermoML archive (doi:10.1021/acs.jced.5b00623).
Several values for one entry are separate records, joined by “and”; a condition that tells them apart may be missing. Equal entries are not always repeated.

Conditions: for vapor or sublimation pressure: Closed cell (Static) method

O=C(C(F)(F)C(F)(F)F)C(F)(C(F)(F)F)C(F)(F)F [dodecafluoro-2-methylpentan-3-one]
Conditions	mass density [kg/m3]	speed of sound [m/s]
225.01 K, 992.5 kPa, Liquid, Buoyancy - hydrostatic balance with magnetic suspension - two sinkers	1809.67	–
225.01 K, 6306.6 kPa, Liquid, Buoyancy - hydrostatic balance with magnetic suspension - two sinkers	1821.02	–
235 K, 11155 kPa, Liquid, Buoyancy - hydrostatic balance with magnetic suspension - two sinkers	1806.22	–
240 K, 16200 kPa, Liquid, Buoyancy - hydrostatic balance with magnetic suspension - two sinkers	1804.64	–
245 K, 21227 kPa, Liquid, Buoyancy - hydrostatic balance with magnetic suspension - two sinkers	1803.18	–
250 K, 26208 kPa, Liquid, Buoyancy - hydrostatic balance with magnetic suspension - two sinkers	1801.77	–
260 K, 1145.1 kPa, Liquid, Buoyancy - hydrostatic balance with magnetic suspension - two sinkers	1716.09	–
260 K, 6242.2 kPa, Liquid, Buoyancy - hydrostatic balance with magnetic suspension - two sinkers	1731.21	–
260 K, 12122 kPa, Liquid, Buoyancy - hydrostatic balance with magnetic suspension - two sinkers	1746.98	–
260 K, 18392 kPa, Liquid, Buoyancy - hydrostatic balance with magnetic suspension - two sinkers	1762.27	–
260 K, 27930 kPa, Liquid, Buoyancy - hydrostatic balance with magnetic suspension - two sinkers	1783.14	–
260 K, 36060 kPa, Liquid, Buoyancy - hydrostatic balance with magnetic suspension - two sinkers	1799.13	–
270 K, 8922.2 kPa, Liquid, Buoyancy - hydrostatic balance with magnetic suspension - two sinkers	1713.2	–
275 K, 12791 kPa, Liquid, Buoyancy - hydrostatic balance with magnetic suspension - two sinkers	1711.88	–
278.15 K, 83 kPa, Liquid, Vibrating tube method	1660.83	–
280 K, 16636 kPa, Liquid, Buoyancy - hydrostatic balance with magnetic suspension - two sinkers	1710.6	–
283.15 K, 83 kPa, Liquid, Vibrating tube method	1646.79	–
285 K, 20456 kPa, Liquid, Buoyancy - hydrostatic balance with magnetic suspension - two sinkers	1709.38	–
288.15 K, 83 kPa, Liquid, Vibrating tube method	1632.33	–
290 K, 24255 kPa, Liquid, Buoyancy - hydrostatic balance with magnetic suspension - two sinkers	1708.2	–
293.15 K, 83 kPa, Liquid, Vibrating tube method	1617.51	–
295 K, 28026 kPa, Liquid, Buoyancy - hydrostatic balance with magnetic suspension - two sinkers	1707.06	–
298.15 K, 83 kPa, Liquid, Vibrating tube method	1602.48	–
303 K, 1007.3 kPa, Liquid, Buoyancy - hydrostatic balance with magnetic suspension - two sinkers	1592.53	–
303 K, 1089 kPa, Liquid, Buoyancy - hydrostatic balance with magnetic suspension - two sinkers	1592.94	–
303 K, 5959.8 kPa, Liquid, Buoyancy - hydrostatic balance with magnetic suspension - two sinkers	1615.54	–
303 K, 6069.2 kPa, Liquid, Buoyancy - hydrostatic balance with magnetic suspension - two sinkers	1616.01	–
303 K, 12121 kPa, Liquid, Buoyancy - hydrostatic balance with magnetic suspension - two sinkers	1639.93	–
303 K, 22348 kPa, Liquid, Buoyancy - hydrostatic balance with magnetic suspension - two sinkers	1673.62	–
303 K, 28346 kPa, Liquid, Buoyancy - hydrostatic balance with magnetic suspension - two sinkers	1690.63	–
303 K, 33973 kPa, Liquid, Buoyancy - hydrostatic balance with magnetic suspension - two sinkers	1705.21	–
303.15 K, 83 kPa, Liquid, Vibrating tube method	1587.28	–
308.15 K, 83 kPa, Liquid, Vibrating tube method	1571.82	–
310 K, 4843.5 kPa, Liquid, Buoyancy - hydrostatic balance with magnetic suspension - two sinkers	1590.92	–
318 K, 9214.8 kPa, Liquid, Buoyancy - hydrostatic balance with magnetic suspension - two sinkers	1589.2	–
318 K, 9295.7 kPa, Liquid, Buoyancy - hydrostatic balance with magnetic suspension - two sinkers	1589.59	–
324.97 K, 65.34 kPa, Gas, Spherical resonator	–	90.45
324.97 K, 82.58 kPa, Gas, Spherical resonator	–	89.49
324.97 K, 100.55 kPa, Gas, Spherical resonator	–	88.41
324.97 K, 100.57 kPa, Gas, Spherical resonator	–	88.41
324.97 K, 100.58 kPa, Gas, Spherical resonator	–	88.41
326.01 K, 13558 kPa, Liquid, Buoyancy - hydrostatic balance with magnetic suspension - two sinkers	1587.57	–
334.01 K, 17866 kPa, Liquid, Buoyancy - hydrostatic balance with magnetic suspension - two sinkers	1585.99	–
334.02 K, 17984 kPa, Liquid, Buoyancy - hydrostatic balance with magnetic suspension - two sinkers	1586.44	–
340 K, 1091.8 kPa, Liquid, Buoyancy - hydrostatic balance with magnetic suspension - two sinkers	1474.85	–
340 K, 4035.6 kPa, Liquid, Buoyancy - hydrostatic balance with magnetic suspension - two sinkers	1497.23	–
340 K, 7986.5 kPa, Liquid, Buoyancy - hydrostatic balance with magnetic suspension - two sinkers	1522.5	–
340 K, 11938 kPa, Liquid, Buoyancy - hydrostatic balance with magnetic suspension - two sinkers	1544.06	–
340 K, 16171 kPa, Liquid, Buoyancy - hydrostatic balance with magnetic suspension - two sinkers	1564.25	–
340 K, 21184 kPa, Liquid, Buoyancy - hydrostatic balance with magnetic suspension - two sinkers	1585.31	–
342.01 K, 22145 kPa, Liquid, Buoyancy - hydrostatic balance with magnetic suspension - two sinkers	1584.49	–
349.97 K, 150.02 kPa, Gas, Spherical resonator	–	90.93
349.97 K, 191.77 kPa, Gas, Spherical resonator	–	88.85
349.98 K, 61.83 kPa, Gas, Spherical resonator	–	94.86
349.98 K, 106.24 kPa, Gas, Spherical resonator	–	92.93
350 K, 53.94 kPa, Gas, Spherical resonator	–	95.2
350 K, 104.66 kPa, Gas, Spherical resonator	–	93
350 K, 152.11 kPa, Gas, Spherical resonator	–	90.82
350 K, 191.03 kPa, Gas, Spherical resonator	–	88.88
350 K, 26385 kPa, Liquid, Buoyancy - hydrostatic balance with magnetic suspension - two sinkers	1583.04	–
360 K, 1009.8 kPa, Liquid, Buoyancy - hydrostatic balance with magnetic suspension - two sinkers	1401.62	–
360 K, 6002.5 kPa, Liquid, Buoyancy - hydrostatic balance with magnetic suspension - two sinkers	1449.57	–
360 K, 8915.5 kPa, Liquid, Buoyancy - hydrostatic balance with magnetic suspension - two sinkers	1471.34	–
360 K, 11021 kPa, Liquid, Buoyancy - hydrostatic balance with magnetic suspension - two sinkers	1485.32	–
360 K, 16073 kPa, Liquid, Buoyancy - hydrostatic balance with magnetic suspension - two sinkers	1514.43	–
360 K, 21146 kPa, Liquid, Buoyancy - hydrostatic balance with magnetic suspension - two sinkers	1539.18	–
360 K, 31620 kPa, Liquid, Buoyancy - hydrostatic balance with magnetic suspension - two sinkers	1581.19	–
370 K, 4182.9 kPa, Liquid, Buoyancy - hydrostatic balance with magnetic suspension - two sinkers	1400.06	–
375.01 K, 57.06 kPa, Gas, Spherical resonator	–	98.91
375.01 K, 123.45 kPa, Gas, Spherical resonator	–	96.64
375.01 K, 220.4 kPa, Gas, Spherical resonator	–	93.07
375.01 K, 316.42 kPa, Gas, Spherical resonator	–	89.11
380 K, 7353.3 kPa, Liquid, Buoyancy - hydrostatic balance with magnetic suspension - two sinkers	1398.51	–
380.04 K, 16688 kPa, Liquid, Buoyancy - hydrostatic balance with magnetic suspension - two sinkers	1468.1	–
385.99 K, 9254.1 kPa, Liquid, Buoyancy - hydrostatic balance with magnetic suspension - two sinkers	1397.63	–
393.98 K, 11788 kPa, Liquid, Buoyancy - hydrostatic balance with magnetic suspension - two sinkers	1396.48	–
400 K, 2018.5 kPa, Liquid, Buoyancy - hydrostatic balance with magnetic suspension - two sinkers	1244.05	–
400 K, 3987.4 kPa, Liquid, Buoyancy - hydrostatic balance with magnetic suspension - two sinkers	1284.55	–
400 K, 8129.1 kPa, Liquid, Buoyancy - hydrostatic balance with magnetic suspension - two sinkers	1342.48	–
400.01 K, 11999 kPa, Liquid, Buoyancy - hydrostatic balance with magnetic suspension - two sinkers	1381.28	–

83 kPa, Liquid, Frequency=3 MHz, Sing-around technique in a fixed-path interferometer
Conditions	speed of sound [m/s]
278.15 K	567.88
283.15 K	551.54
288.15 K	535.45
293.15 K	519.58
298.15 K	503.72
303.15 K	488.11
308.15 K	472.63

Liquid
Conditions	vapor or sublimation pressure
324.96 K	111.4 kPa and 111.4 kPa
324.97 K	111.4 kPa and 111.3 kPa
324.98 K	111.6 kPa
339.95 K	180.3 kPa
349.99 K	242.7 kPa
354.98 K	278.7 kPa
370 K	413.4 kPa
374.99 K	467.9 kPa and 467.6 kPa
390.03 K	663.7 kPa
